Laboratory results: PMC4641600, “Novel Activities of Select NSAID R-Enantiomers against Rac1 and Cdc42 GTPases” (PLoS ONE, 2015)

What was measured:
Rac1 wt = Rac1 wt (Homo sapiens, UniProt P63000); assay: Dose response, BODIPY-GTP binding; conditions: 10 nM to 100 µM
[1] = target: Rac1Q61L activating mutant (Homo sapiens, UniProt P63000, Q61L); assay: Dose response, BODIPY-GTP binding; conditions: 10 nM to 100 µM
Cdc42 wt = Cdc42 wt (Homo sapiens, UniProt P60953); assay: Dose response, BODIPY-GTP binding; conditions: 10 nM to 100 µM
Cdc42 wt, sequence (P60953 whole entry): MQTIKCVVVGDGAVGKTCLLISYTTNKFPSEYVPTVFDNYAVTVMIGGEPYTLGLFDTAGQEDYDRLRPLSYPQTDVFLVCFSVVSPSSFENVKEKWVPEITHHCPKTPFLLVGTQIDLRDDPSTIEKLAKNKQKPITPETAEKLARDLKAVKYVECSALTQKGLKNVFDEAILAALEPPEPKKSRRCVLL

[2] = target: Cdc42Q61L activating mutant (Homo sapiens, UniProt P60953, Q61L); assay: Dose response, BODIPY-GTP binding
Cdc42Q61L activating mutant, sequence (P60953 whole entry Q61L): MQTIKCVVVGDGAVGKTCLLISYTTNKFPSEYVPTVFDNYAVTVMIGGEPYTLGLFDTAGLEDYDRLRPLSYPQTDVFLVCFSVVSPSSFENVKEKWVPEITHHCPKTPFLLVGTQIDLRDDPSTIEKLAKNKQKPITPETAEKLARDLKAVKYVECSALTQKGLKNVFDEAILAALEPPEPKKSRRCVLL

H-RasG12V = H-RasG12V (Homo sapiens, UniProt P01112, G12V); assay: Dose response, BODIPY-GTP binding; conditions: 10 nM to 100 µM
Experimental: For multiplex analyses of small GTPases, 4 μm diameter glutathione-beads (GSH-beads) distinguished by seven different intensities of red fluorescence were used according to our previously described protocols. The GST-GTPases included the following eight Ras-related small GTPases: Rab2 wt, Rab7 wt, Cdc42 wt, Cdc42Q61L activating mutant, H-Ras wt, H-RasG12V, Rac1 wt and Rac1Q61L activating mutant. Briefly, Prestwick Chemical Library® compounds were tested at 10 μM compound and 1% DMSO final concentrations. After a 10 min pre-incubation with the compound BODIPY- FL-GTP (100 nM final) was added to each well and bead associated fluorescence was measured. Sample analysis was conducted with a HyperCyt® high throughput flow cytometry platform. Flow cytometric light scatter at 488 nm and fluorescence emission at 530 +/− 20 nm (FL1) and 665 +/− 10 nm (FL8) were collected on a Cyan ADP flow cytometer (Beckman Coulter, Fullerton, CA). IDLQuery software was used to determine the compound activity in each well. Gating based on forward scatter (FS) and side scatter (SS) parameters was used to identify singlet bead populations. Gating based on FL8 emission distinguishes the beads coated with different proteins, and the median FL1 fluorescence per bead population were calculated. A compound was considered a “potential active” if the change in BODIPY-FL-GTP binding differed greater than 20% from that measured in DMSO treated controls.
Test compounds identified for follow-up after the primary screen were tested at dilutions ranging from 10 nM to 100 μM final concentration against individual GTPases in multiplex and single-plex assays. Compounds tested in dose response assays were serially diluted 1:3 a total of eight times from a starting concentration of 10 mM giving a 9-point dilution series in DMSO.
bConfirmatory screens entailed dose response assays conducted in a multiplex format with eight GTPases tested as for primary screen. BODIPY-GTP-binding activity was
measured in the presence of 10 nM to 100 µM of each of 11 test compounds (4 primary screen hits and 7 additional NSAIDs considered to have chemical similarity to GTPase
active compounds). GST-GFP coated beads served as a control to detect non-specific dissociation or denaturation caused by compound addition–none of the tested NSAIDs had
any effect on bead-GST-protein binding. EC50 values were determined using Prism to determine dose response fits as shown in Figure 1 of main text; fits have R2 > 0.9. Active
compounds based on same definition used as in primary screena. […]
‡A well-characterized selective Cdc42 inhibitor served as a positive control.

Rab2 = Rab2 (Homo sapiens, UniProt P61019); assay: Dose response, BODIPY-GTP binding; conditions: 10 nM to 100 µM
Rab2, sequence (P61019 whole entry, species assumed): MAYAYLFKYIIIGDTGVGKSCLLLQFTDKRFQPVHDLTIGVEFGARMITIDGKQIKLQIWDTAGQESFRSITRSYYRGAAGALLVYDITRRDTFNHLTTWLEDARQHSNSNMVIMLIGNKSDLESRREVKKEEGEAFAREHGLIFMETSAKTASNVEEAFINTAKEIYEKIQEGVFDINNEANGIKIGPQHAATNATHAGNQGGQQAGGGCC

Rab7 = Rab7 (Homo sapiens, UniProt P51149); assay: Dose response, BODIPY-GTP binding; conditions: 10 nM to 100 µM
Rab7, sequence (P51149 whole entry, species assumed): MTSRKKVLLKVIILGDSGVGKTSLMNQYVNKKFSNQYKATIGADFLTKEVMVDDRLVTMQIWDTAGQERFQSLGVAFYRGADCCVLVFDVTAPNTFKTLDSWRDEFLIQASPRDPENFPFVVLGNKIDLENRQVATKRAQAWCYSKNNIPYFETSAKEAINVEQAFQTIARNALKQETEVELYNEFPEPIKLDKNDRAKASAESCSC

GST-Rac1 = GST-Rac1 (Homo sapiens, UniProt P63000); assay: In vitro nucleotide binding assay on individual GTPase (13 µm GSH beads); conditions: GST-Rac1 and GST-Cdc42; BODIPY-GTP 300 nM
Rac1 [3] = target: T1, Rac1 (Homo sapiens, UniProt P63000); assay: G-trap flow cytometric effector binding assay, HeLa cells; format: cell-based
T1 construct: endogenous in cells; host or cells: HeLa

Cdc42 [4] = target: T2, Cdc42 (Homo sapiens, UniProt P60953); assay: as above; format: cell-based
T2 construct: endogenous in cells; host or cells: HeLa
T2 sequence (P60953 whole entry): as the sequence (P60953 whole entry) above

Rac1 [5] = target: T3, Rac1 (Mus musculus, UniProt P63001); assay: GLISA, Swiss 3T3 cells; format: cell-based
T3 construct: endogenous in cells; host or cells: Swiss 3T3

Cdc42 [6] = target: T4, Cdc42 (Mus musculus, UniProt P60766); assay: GLISA, Swiss 3T3 cells; format: cell-based; conditions: Swiss-3T3; at 300 µM
T4 construct: endogenous in cells; host or cells: Swiss 3T3
T4 sequence (P60766 whole entry): as the sequence (P60953 whole entry) above

Rac1 [7] = target: T1, Rac1; assay: GLISA, OvCa433 cells; format: cell-based; conditions: 300 μM, 1 h pretreatment, 10 ng/ml EGF 2 min
human COX-1 = target: T5, human COX-1 (Homo sapiens, UniProt P23219); assay: Cyclooxygenase assay (CEREP), PGE2 formation; format: biochemical; conditions: recombinant enzyme, 4 μM arachidonic acid
T5 construct: purchased CEREP Laboratories (contract assay); host or cells: Sf-9
T5 sequence (P23219 24-599): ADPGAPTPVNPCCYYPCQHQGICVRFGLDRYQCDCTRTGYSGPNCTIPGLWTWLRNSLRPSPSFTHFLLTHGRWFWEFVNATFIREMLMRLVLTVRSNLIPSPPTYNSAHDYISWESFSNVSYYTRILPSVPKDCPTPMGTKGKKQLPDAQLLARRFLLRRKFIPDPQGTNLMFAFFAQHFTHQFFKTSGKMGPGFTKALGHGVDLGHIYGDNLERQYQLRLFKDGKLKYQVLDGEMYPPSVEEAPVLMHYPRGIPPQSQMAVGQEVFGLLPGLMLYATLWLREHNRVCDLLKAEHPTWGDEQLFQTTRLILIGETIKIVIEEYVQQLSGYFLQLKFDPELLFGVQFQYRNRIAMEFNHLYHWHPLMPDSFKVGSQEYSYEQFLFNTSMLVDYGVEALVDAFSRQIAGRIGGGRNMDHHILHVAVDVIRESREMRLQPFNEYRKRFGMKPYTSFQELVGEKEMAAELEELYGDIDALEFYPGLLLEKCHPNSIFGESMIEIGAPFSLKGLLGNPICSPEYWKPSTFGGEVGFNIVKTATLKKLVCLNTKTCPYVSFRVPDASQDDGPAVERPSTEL

[8] = system: Rac1 membrane localization; assay: Rac1 immunolocalization, OvCa433 cells; format: cell-based, human
[9] = system: Tiam1 membrane localization; assay: Tiam1 immunolocalization, OvCa433 cells; format: cell-based, human
Experimental: OvCa433 were plated on coverslips, treated with 300 μM NSAIDs for 1 h, fixed with 3% paraformaldehyde and immunostained for Rac1 or Tiam1. Actin was visualized with rhodamine phalloidin from Invitrogen (F432). Cells were imaged on a Zeiss LSM510 using a 63x objective and quantified using Image J.
Rac1 and Tiam1 antibodies were confirmed in our hands to recognize single protein species of the predicted molecular weight by immunoblot.

[10] = system: Rac1 and Tiam1 protein levels; assay: Immunoblot of protein levels; format: cell-based, human
Experimental: Cells were stimulated with EGF at a final concentration of 1 nM for 10 min. Cells were lysed in a RIPA buffer consisting of 50 mM Tris pH 7.4, 1% NP-40, 0.25% sodium deoxycholate, 150 mM NaCl, 1 mM EDTA, 1 mM PMSF, 1 mM sodium vanadate, 10 mM sodium fluoride, 1 μg/mL each of pepstatin, aprotinin and leupeptin, 10 mM sodium pyrophosphate and 10 mM beta-glycerophosphate.
N = 3. See also Figure D in S1 File for time dependent loss of Rac1 membrane localization. N = 3 (B) Quantification of image intensity using Image J of 3 representative confocal images as shown in panel (A) containing 20–30 cells/field normalized to actin and untreated controls. (C) Western blot analyses of lysates from cells treated with 300 μM compound as indicated for 24 h as compared to untreated controls. […] Blots were probed for Tiam1 (200 kDa), GAPDH (37 kDa), Rac1 (20 kDa), as a loading control. (D) Quantification of image intensity using Image J. Each marker was normalized to GAPDH and untreated controls. N = 3.

[11] = immunofluorescence quantified using ImageJ

## COc1ccc2cc(CC(=O)O)ccc2c1 [6-MNA, 6-methoxy-2-napthalene acetic acid]
Rac1 wt
  Rac1 wt EC50: inactive
[1]
  Rac1 (act) EC50: inactive
Cdc42 wt
  Cdc42 wt EC50: inactive
[2]
  activity against the constitutively active Cdc42 mutant: weak activity
[2]; 10 nM to 100 µM, read-out: Cdc42 (act) EC50
  EC50: 12.3 µM
H-RasG12V
  H-Ras (act) EC50: inactive
Rab2
  Rab2 EC50: inactive
Rab7
  Rab7 EC50: inactive
GST-Rac1
  inhibition of BODIPY-GTP binding: inactive
Rac1 [3]
  fold lower potency than R-naproxen, Rac1: up to 6 fold
Cdc42 [4]
  fold lower potency than R-naproxen, Cdc42: 3 fold
Rac1 [5]; 300 μM, 15 min or 1 h (either time point)
  EGF-mediated Rac1 activation: no inhibitory effect
Rac1 [5]; Swiss-3T3, at 300 µM
  inhibition at 300 µM: 0%
Cdc42 [6]
  inhibition at 300 µM: 0%
Rac1 [7]
  Rac1 activation by EGF: no or limited effect
Human COX-1
  IC50: 28 µM
[8]; 300 μM
  Rac1 membrane localization: no effect
[8]; [11]
  Rac PM Localiz.: 98%
[9]; 300 μM
  Tiam1 membrane localization: only slightly reduced
[9]; [11]
  Tiam1 GEF PM localiz.: 73%
[10]; 300 μM, 24 h, immunoblot
  total Rac1 or Tiam1 protein levels: did not alter
[10]; immunoblot analysis
  Rac protein expression: No change
